Usually IC50 stands for the point on the concentration scale where inhibition reaches its midpoint. High values mean lower potency, low ones higher potency. One may read the inhibition as the drop in the measured response relative to a control, in per cent. As a reminder, the AC50 is the concentration at which the activity in the assay is half-maximal. Higher therefore signals activity only at high concentration.

This note sets out measurements from ChEMBL document CHEMBL1142357, “Synthesis and biological evaluation of 1-methyl-2-(3',4',5'-trimethoxybenzoyl)-3-aminoindoles as a new class of antimitotic agents and tubulin inhibitors” (J Med Chem, 2008).

One test relates to CCRF-CEM. In words: Antiproliferative activity against human CEM cells. The class given is functional, cell-based.
The next test concerns L1210. Description: Antiproliferative activity against mouse L1210 cells. The class given is functional, cell-based.
A further test has as its system FM3A. Description: Antiproliferative activity against mouse FM3A cells. The class given is functional, cell-based.
Test [1] is described as follows: Antiproliferative activity against human Molt4/C8 cells. The class given is functional, cell-based. As to conditions: MOLT-4.
Test [2] can be described thus: Inhibition of bovine tubulin polymerization after 20 mins. On the set-up: species or system Bos taurus.
The subject of test [3] is K562. In words: Cell cycle arrest in human K562 cells by accumulation at S phase at 30 nM after 24 hrs by flow cytometry. The class given is functional. (In general: A flow cytometer gives signals particle by particle.)
Test [4] concerns K562. Description: Cell cycle arrest in human K562 cells by accumulation at G2/M phase at 30 nM after 24 hrs by flow cytometry. The class given is functional.
Test [5] concerns K562. In words: Cell cycle arrest in human K562 cells by accumulation at G0/G1 phase at 30 nM after 24 hrs by flow cytometry. The class given is functional.
The species entered for another test is Bos taurus. In words: Displacement of [3H]colchicine from bovine tubulin at 5 uM. (In general: Loss of bound radioactivity is the signal in a displacement assay; it reports binding, not function.)
In test [6] the test system is K562. Description: Induction of apoptosis in human K562 cells after 48 hrs by fluorescence microscopy. The class given is functional, cell-based. The conditions noted are these: K562, 48 h.
Test [7] concerns K562. In words: Cell cycle arrest in human K562 cells by accumulation at A phase at 30 nM after 24 hrs by flow cytometry. The class given is functional.
For test [8], the system named is K562. In words: Induction of apoptosis in human K562 cells at 60 nM after 48 hrs by fluorescence microscopy. The class given is functional.
The test system of test [9] is K562. Description: Cell cycle arrest in human K562 cells by accumulation at S phase at 3 uM after 24 hrs by flow cytometry. The class given is functional.
Test [10] relates to K562. In words: Cell cycle arrest in human K562 cells by accumulation at G0/G1 phase at 3 uM after 24 hrs by flow cytometry. The class given is functional.
Test [11] concerns K562. In words: Cell cycle arrest in human K562 cells by accumulation at sub G0-G1 phase at 3 uM after 24 hrs by flow cytometry. The class given is functional.
The test system of test [12] is K562. In words: Cell cycle arrest in human K562 cells by accumulation at G2/M phase at 3 uM after 24 hrs by flow cytometry. The class given is functional.
Test [13] concerns K562. In words: Cell cycle arrest in human K562 cells by accumulation at A phase at 200 nM after 24 hrs by flow cytometry. The class given is functional.
In test [14] the test system is K562. In words: Cell cycle arrest in human K562 cells by accumulation at S phase at 200 nM after 24 hrs by flow cytometry. The class given is functional.
The subject of test [15] is K562. Description: Cell cycle arrest in human K562 cells by accumulation at G0/G1 phase at 200 nM after 24 hrs by flow cytometry. The class given is functional.
Test [16] relates to K562. Description: Cell cycle arrest in human K562 cells by accumulation at G2/M phase at 200 nM after 24 hrs by flow cytometry. The class given is functional.

The structures appear in SMILES notation.

In the case of `COc1cc(C(=O)c2c(N)c3c(C)cccc3n2C)cc(OC)c1OC`, the IC50 is greater than 10 µM in the test with CCRF-CEM, greater than 10 µM in the test with L1210, greater than 10 µM with FM3A and greater than 10000 nM in [1].

With `COc1cc(C(=O)c2c(N)c3cccc(C)c3n2C)cc(OC)c1OC`, the IC50 in the test on CCRF-CEM was 1.2 µM; in the test on L1210, 1.8 µM; with FM3A, 1.4 µM; in [2] it was 8.4 µM; in test [1], 270 nM.

In the case of `COc1cc(C(=O)c2[nH]c3cc(Cl)ccc3c2N)cc(OC)c1OC`, the IC50 is greater than 10 µM in the test with CCRF-CEM, greater than 10 µM in the test with L1210, greater than 10 µM with FM3A and 9200 nM in [1].

Consider `COc1cc(C(=O)c2[nH]c3ccc(C)cc3c2N)cc(OC)c1OC`, for which the IC50 with CCRF-CEM is greater than 10 µM; in the test with L1210, greater than 10 µM; with FM3A, greater than 10 µM; in [1], greater than 10000 nM.

As to `COc1cc(C(=O)c2[nH]c3c(C)cccc3c2N)cc(OC)c1OC`, the IC50 was greater than 10 µM in the test with CCRF-CEM, greater than 10 µM in the test with L1210, greater than 10 µM in the test with FM3A and greater than 10000 nM in [1].

On to `COc1cc(C(=O)c2c(N)c3ccc(Cl)cc3n2C)cc(OC)c1OC`, for which the IC50 in the test on CCRF-CEM stood at 1 µM; with L1210, 1.1 µM; in the test on FM3A, 0.97 µM; in [2], 7.1 µM; in test [1] it was 480 nM.

Regarding `COc1cc(C(=O)c2[nH]c3c(OC)cccc3c2N)cc(OC)c1OC`, the IC50 in the test with CCRF-CEM was 0.63 µM; with L1210, greater than 10 µM; in the test on FM3A, greater than 10 µM; in test [1], 640 nM.

Turning to `COc1cc(C(=O)c2c(N)c3cc(C)ccc3n2C)cc(OC)c1OC`, the IC50 with CCRF-CEM was determined as 1.7 µM; in the test on L1210, 1.9 µM; in the test on FM3A, 1.6 µM; in test [2], 10 µM; in [1], 1700 nM.

On to `COc1cc2[nH]c(C(=O)c3cc(OC)c(OC)c(OC)c3)c(N)c2cc1OC`, for which the IC50 is 9.5 µM in the test on CCRF-CEM, greater than 10 µM with L1210, greater than 10 µM in the test with FM3A and 8600 nM in [1].

Regarding `COc1cc(C(=O)c2c(N)c3cccc(OC)c3n2C)cc(OC)c1OC`, the IC50 is 0.0088 µM with CCRF-CEM; 0.015 µM in the test on L1210; 0.015 µM in the test with FM3A; 1.4 µM in test [2]; 3.8 nM in test [1]. The Activity was 28% with K562 [3]; 45% in the test on K562 [4]; 27% with K562 [5]; 24% with K562 [7]; 100% with K562 [8]. The inhibition in the test filed under Bos taurus came to 76%. The compound also gave an AC50 in the test with K562 [6] of 30 nM.

As to `COc1cc(C(=O)c2sc3c(OC)cccc3c2N)cc(OC)c1OC`, the IC50 in the test with CCRF-CEM is 0.0089 µM; in the test with L1210, 0.033 µM; with FM3A, 0.027 µM; in [2] it was 2.1 µM; in test [1], 8.5 nM. In the test listed under Bos taurus, this compound came in with an inhibition of 39%.

Consider `COc1ccc2c(c1)c(N)c(C(=O)c1cc(OC)c(OC)c(OC)c1)n2C`, for which the IC50 worked out at 3.9 µM with CCRF-CEM; 4.2 µM in the test with L1210; 5.2 µM with FM3A; 15 µM in test [2]; 2100 nM in test [1].

Regarding `COc1cc(C(=O)c2c(N)c3ccc(C)cc3n2C)cc(OC)c1OC`, the IC50 in the test with CCRF-CEM came to 0.4 µM; in the test with L1210, 1.9 µM; with FM3A, 1.5 µM; in test [2], 6.4 µM; in test [1] it was 110 nM.

Regarding `COc1cc(C(=O)c2[nH]c3cccc(C)c3c2N)cc(OC)c1OC`, the IC50 is greater than 10 µM with CCRF-CEM, greater than 10 µM in the test on L1210, greater than 10 µM with FM3A and greater than 10000 nM in [1].

`COc1cc(C(=O)c2[nH]c3ccccc3c2N)cc(OC)c1OC`: the IC50 with CCRF-CEM was greater than 10 µM; in the test on L1210, greater than 10 µM; in the test on FM3A it was greater than 10 µM; in [1], greater than 10000 nM.

Regarding `CCn1c(C(=O)c2cc(OC)c(OC)c(OC)c2)c(N)c2ccc(OC)cc21`, the IC50 in the test on CCRF-CEM was greater than 10 µM; in the test with L1210 it was greater than 10 µM; in the test on FM3A, greater than 10 µM; in test [1], greater than 10000 nM.

For `COc1cc(C(=O)c2[nH]c3ccc(Cl)cc3c2N)cc(OC)c1OC`, the IC50 with CCRF-CEM was greater than 10 µM; with L1210, greater than 10 µM; in the test with FM3A it was greater than 10 µM; in test [1] it was greater than 10000 nM.

For `CCn1c(C(=O)c2cc(OC)c(OC)c(OC)c2)c(N)c2cccc(OC)c21`, the IC50 was greater than 10 µM in the test with CCRF-CEM, greater than 10 µM with L1210, greater than 10 µM in the test with FM3A and 9100 nM in test [1].

Turning to `COc1ccc2c(N)c(C(=O)c3cc(OC)c(OC)c(OC)c3)[nH]c2c1`, the concentration for half-maximal inhibition (IC50) with CCRF-CEM is 0.32 µM; in the test with L1210, 0.97 µM; in the test with FM3A, 1.6 µM; in test [2] it was greater than 40 µM; in test [1], 630 nM. Further, the Activity in the test with K562 [9] was 35%; with K562 [10], 15%; with K562 [11] it was 25%; in the test on K562 [12], 50%. This compound came in with an AC50 in the test on K562 [6] of 3000 nM.

Consider `CCn1c(C(=O)c2cc(OC)c(OC)c(OC)c2)c(N)c2ccccc21`, for which the IC50 is greater than 10 µM in the test on CCRF-CEM, greater than 10 µM with L1210, greater than 10 µM in the test with FM3A and greater than 10000 nM in test [1].

Turning to `COc1cc(C(=O)c2c(N)c3ccccc3n2C)cc(OC)c1OC`, the half-maximal inhibitory concentration (IC50) with CCRF-CEM is 6.8 µM; with L1210 it was 8.1 µM; with FM3A, greater than 10 µM; in test [1], 2100 nM.

In turn, `COc1ccc(/C=C\c2cc(OC)c(OC)c(OC)c2)cc1O` [COMBRETASTATIN A4] showed an IC50 in test [1] of 1.6 nM.

For `COc1ccc2c(N)c(C(=O)c3cc(OC)c(OC)c(OC)c3)n(C)c2c1`, the IC50 with CCRF-CEM turned out to be 0.071 µM; with L1210 it was 0.069 µM; in the test on FM3A, 0.097 µM; in test [2], 4.6 µM; in [1], 57 nM. The compound further came in with an inhibition in the test filed under Bos taurus of 38%. Also, the AC50 in the test with K562 [6] was 150 nM. Besides, the Activity in the test with K562 [13] was determined as 23%; with K562 [14], 33%; with K562 [15], 15%; in the test with K562 [16] it was 52%.

Take `COc1cc(C(=O)c2[nH]c3cccc(OC)c3c2N)cc(OC)c1OC`: the IC50 with CCRF-CEM is greater than 10 µM; in the test on L1210, greater than 10 µM; in the test on FM3A it was greater than 10 µM; in test [1], greater than 10000 nM.

As to `COc1cc(C(=O)c2c(N)c3c(OC)cccc3n2C)cc(OC)c1OC`, the IC50 in the test on CCRF-CEM was greater than 10 µM; in the test on L1210 it was greater than 10 µM; with FM3A, greater than 10 µM; in test [1] it was greater than 10000 nM.

On to `COc1ccc2c(C(=O)c3cc(OC)c(OC)c(OC)c3)c[nH]c2c1`, for which the IC50 in the test with CCRF-CEM worked out at 0.0036 µM; in the test with L1210 it was 0.0035 µM; in the test with FM3A, 0.0037 µM; in [2] it was 2.9 µM; in test [1] it was 3.4 nM. The compound further had an inhibition in the test listed under Bos taurus of 84%.

For the compound `COc1cc(C(=O)c2[nH]c3cc(C)ccc3c2N)cc(OC)c1OC`, the 50% inhibitory concentration (IC50) was 2.6 µM in the test on CCRF-CEM, 3.5 µM in the test with L1210, greater than 10 µM in the test with FM3A and 1400 nM in test [1].

Consider `COc1ccc2[nH]c(C(=O)c3cc(OC)c(OC)c(OC)c3)c(N)c2c1`, for which the IC50 with CCRF-CEM amounted to 8.6 µM; with L1210, 9.7 µM; in the test with FM3A it was 9.9 µM; in test [1], 6900 nM.

With `COc1cc2c(N)c(C(=O)c3cc(OC)c(OC)c(OC)c3)n(C)c2cc1OC`, the IC50 in the test on CCRF-CEM came out at 5 µM; in the test with L1210, 5.4 µM; in the test with FM3A it was 5 µM; in test [2] it was 18 µM; in [1], 5000 nM.
